Values of other authors in US20120101089A1, “Anti-Emetic Substance” (priority 2010, published 2012).
“Also recorded” adds a separate entry of the source. Read-outs that look alike come from different tables or passages of the source.

Key:
[1] = for Adverse Effect: common adverse effects associated with single agents, listed per class; for sedation, droperidol versus ondansetron groups: i.v. ondansetron 4 mg, droperidol 20 μg/kg, outpatient gynaecological laparoscopy
[2] = not given; remark: listed apart in the source
[3] = for prevention of PONV symptoms: i.v. tropisetron 5 mg, droperidol 1.25 mg at the end of gynaecological surgery (Purhonen); for prevention of PONV versus placebo: ephedrine 0.5 mg/kg i.m., propofol […] i.v., laparoscopic surgery; for PONV prevention versus comparators: major gynecological surgery; for PONV prevention versus metoclopramide 10 mg or placebo: granisetron 3 mg, tropisetron 5 mg before start of anesthesia (Naguib)
[4] = not given; remark: listed apart in the source
[5] = for optimal dose for PONV treatment: children older than 2 years, intravenously
[6] = 15 mg and 0.15 mg/kg i.v. immediately after umbilical cord clamped; lidocaine, morphine epidural

CCN(CC)C(=O)C1CN2CCc3cc(OC)c(OC)cc3C2CC1OC(C)=O (centres unmarked) [benzquinamide, Benzquinamide]
Adverse Effect [1]: Sedation, EPS, restlessness,

CN(C)CCCN1c2ccccc2Sc2ccc(Cl)cc21 [chlorpromazine]
Adverse Effect [1]: Sedation, EPS, hypotension,

CN1CCN(C(c2ccccc2)c2ccccc2)CC1 [cyclizine, Cyclizine]
Adverse Effect [1]: Sedation, dry mouth,

CS(=O)(=O)O.O=C(OC1C[C@@H]2CC3C[C@H](C1)N2CC3=O)c1c[nH]c2ccccc12 (some centres unmarked) [dolasetron mesylate]
patients with some emesis control (single-arm study): 65%

O=C(O[C@@H]1C[C@@H]2C[C@H]3C[C@H](C1)N2CC3=O)c1c[nH]c2ccccc12 [dolasetron, Dolasetron]
clearance and half-life in children compared with young healthy adult volunteers ([2]; children): increased clearance and a shorter half-life
elimination half-life ([2]; parent compound): 9 min

O=C(CCCN1CC=C(n2c(=O)[nH]c3ccccc32)CC1)c1ccc(F)cc1 [droperidol]
prevention of PONV ([3]; 5 μg/kg i.v. 1 hour before end of anesthesia, children 11 to 15 years): effective in preventing PONV
best anti-emetic effectiveness among groups ([3]; 1.25 mg dose (Fortney)): best anti-emetic effectiveness
prevention of PONV versus i.v. droperidol 1.25 mg or ondansetron 4 mg ([3]; i.v. 0.625 mg at start of anesthesia, outpatient gynecological operations): as effective
PONV prevention, low versus higher dose ([3]; i.v. 0.625 mg immediately following intubation): as effective as intravenous droperidol 1.25 mg
prevention of PONV versus comparators ([3]; i.v. 1.25 mg before end of general anesthesia, female patients, elective orthopaedic surgery): significantly superior to intravenous metoclopromide 10 mg and a saline placebo
prevention of PONV versus comparators ([3]; i.v. 1.25 mg immediately before end of anesthesia, day-stay and major gynaecological surgery): superior to intravenous metoclopramide 10 mg, intravenous domperidone 5 mg and an intravenous saline placebo
patients with no emesis versus i.v. ondansetron 8 mg ([3]; i.v. 2.5 mg, women, inpatient minor gynaecological surgery): more patients
prevention of PONV symptoms [3]: failed to prevent any PONV symptoms
anti-emetic effectiveness versus haloperidol ([3]; intramuscular 5 mg): equivalent anti-emetic effectiveness to intramuscular haloperidol 2 mg
sedation or other adverse effects ([1]; 1.25 mg dose (Fortney)): no increase in sedation or other adverse effects
Adverse Effect [1]: Sedation, EPS,
adverse effects (dystonic reactions, EPS, sedation) ([1]; i.v. 0.625 mg and 1.25 mg): few adverse effects
sedation or other adverse effects ([1]; i.v. 0.625 mg or 1.25 mg, outpatient gynecological operations): no increase in sedation or other adverse effects
anxiety and drowsiness ([1]; i.v. 1.25 mg at the end of gynaecological surgery (Purhonen)): increase in anxiety and drowsiness
adverse effects versus studies with dose less than 2.5 mg ([1]; i.v. 2.5 mg): more adverse effects (i.e. sedation, dizziness)
sedation, droperidol versus ondansetron groups [1]: no difference
duration of action / effect ([2]; following administration, route not stated): ≤ 24 h

CN[C@@H](C)[C@H](O)c1ccccc1 [ephedrine]
prevention of PONV versus placebo [3]: more effective, with no haemodynamic changes, than placebo

CN1C2CCCC1CC(NC(=O)c1nn(C)c3ccccc13)C2 (centres unmarked) [granisetron, Granisetron]
PONV prevention versus comparators ([3]; 40 μg/kg immediately prior to induction, women during menstruation (Fujii)): more effective than droperidol 25 μg/kg or metoclopramide 0.2 mg/kg
optimal dose for PONV prevention ([3]; adults and children, intravenous, other studies): 0.04 mg/kg
optimum effective prophylactic dose ([3]; adults, i.v. immediately before the start of anesthesia, 0.1, 1 and 3 mg compared): 1 mg
PONV prevention versus comparators ([3]; i.v. 2.5 mg immediately prior to anesthesia, history of postoperative emesis and motion sickness): more effective than droperidol 1.25 mg or metoclopramide 10 mg
PONV prevention versus metoclopramide 10 mg or placebo ([3]; i.v. ondansetron 4 mg): significantly greater anti-emetic effectiveness than metoclopramide or placebo
Adverse Effect [1]: Headache, dizziness

O=C(CCCN1CCC(O)(c2ccc(Cl)cc2)CC1)c1ccc(F)cc1 [haloperidol]
effectiveness in PONV ([3]; 7 μg/kg i.v. and 0.5 to 4.0 mg i.m. for prevention, 1 mg i.m. for treatment): effective in PONV, with little sedative effect
Adverse Effect [1]: Sedation, EPS,
duration of action ([2]; intramuscular): approximately 12 hours
onset time / onset of action ([2]; intramuscular): approximately 30 minutes

O=C(OC1CC2CC3CC(C1)N2CC3O)c1c[nH]c2ccccc12 (centres unmarked) [hydrodolasetron]
share of the anti-emetic effect ([2]; active metabolite of dolasetron): 87%
mean half-life ([2]; intravenous form): ~8.3 h
mean half-life ([2]; oral form): approximately 7.1 hours

OCCOCCN1CCN(C(c2ccccc2)c2ccc(Cl)cc2)CC1 (centres unmarked) [hydroxyzine, Hydroxyzine]
incidence of PONV versus droperidol ([3]; i.m. 100 mg after induction of anesthesia, non-premedicated patients): decrease the incidence of PONV more effectively than intramuscular droperidol 2.5 mg
Adverse Effect [1]: Sedation, dry mouth,

CCN(CC)CCNC(=O)c1cc(Cl)c(N)cc1OC [metoclopramide, Metoclopramide]
effect on emetic effects of opioids ([4]; additional 10 to 20 mg i.m. at the end of the operation): reduced the emetic effects of pethidine, but had less effect when morphine was given
effect on pre-anaesthetic emetic effects of pethidine ([4]; preoperative 10 and 20 mg intramuscularly): abolished the pre-anaesthetic emetic effects of pethidine
treatment of PONV versus comparators ([5]; 10 mg intravenously): as effective as intravenous droperidol 1.25 mg and more effective than intravenous propofol 10 mg
incidence of nausea and vomiting [6]: effectively reduce the incidence of nausea and vomiting
Adverse Effect [1]: Sedation, EPS, restlessness,

Cc1ncc2n1-c1ccc(Cl)cc1C(c1ccccc1F)=NC2 [midazolam, Midazolam]
prevention of vomiting after tonsillectomy ([3]; 75 μg/kg i.v. after induction of anesthesia, children): effective for the prevention of vomiting

Cc1nccn1CC1CCc2c(c3ccccc3n2C)C1=O (centres unmarked) [ondansetron, Ondansetron]
optimal effective dose for PONV ([3]; adults, intravenously at the start of anesthesia): 4 mg
optimal effective dose for PONV ([3]; adults, orally 1 to 2 hours before anesthesia): 8 mg
optimal dose for PONV prevention ([3]; children older than 2 years, orally): 0.1 mg/kg
prevention of vomiting versus comparators ([3]; i.v. 0.1 mg/kg, children undergoing adenotonsillectomy): more effective in preventing vomiting than dimenhydrimate 0.5 mg/kg or placebo
efficacy by timing of administration ([3]; i.v. 4 mg, end of surgery versus before induction of anesthesia): significantly better when administered at the end of surgery
patients with emesis versus i.v. metoclopramide 10 mg or droperidol 0.625 mg ([3]; i.v. 8 mg prior to anesthesia (Alon and Himmelseher)): fewer
difference between ondansetron and dexamethasone administered alone ([3]; i.v. ondansetron 4 mg, dexamethasone 8 mg, major gynaecological surgery): No difference
PONV prevention versus metoclopramide 10 mg or placebo ([3]; i.v. ondansetron 4 mg): significantly greater anti-emetic effectiveness than metoclopramide or placebo
optimal dose for PONV treatment ([5]; <40 kg): 0.1 mg/kg
optimal dose for PONV treatment ([5]; >40 kg): 4 mg
treatment of PONV versus comparators ([5]; i.v. 4 mg, following gynecological laparoscopy (Polati)): better efficacy than intravenous metoclopramide 10 mg or placebo
control of PONV by repeat dose ([5]; repeat i.v. 4 mg in PACU after failed prophylaxis with i.v. 4 mg (Kovac)): does not appear to offer additional control of PONV
control of vomiting and nausea during subsequent days of chemotherapy (single agent (Barbounis)): progressive decline
cases in which effective (single agent, day 1 of chemotherapy administration (Barbounis)): about 76%
incidence of adverse events after additional dose ([1]; additional 4 mg postoperatively): did not result in an increased incidence of adverse events
Adverse Effect [1]: Headache, dizziness
sedation, droperidol versus ondansetron groups [1]: no difference

OCCN1CCN(CCCN2c3ccccc3Sc3ccc(Cl)cc32)CC1 [perphenazine]
efficacy in preventing PONV versus comparator ([3]; children after tonsillectomy, prophylactic 70 μg/kg): more effective than dexamethasone 150 μg/kg; also recorded: equally as effective as ondansetron 150 μg/kg
emesis after tonsillectomy ([3]; paediatric patients, prophylactic i.v. 70 μg/kg): decreased emesis
Adverse Effect [1]: Sedation, EPS, hypotension,

CC(CN1c2ccccc2Sc2ccccc21)N(C)C (centres unmarked) [promethazine]
Adverse Effect [1]: Sedation, EPS, hypotension,

CC(C)c1cccc(C(C)C)c1O [propofol]
prevention of PONV by anesthetic used ([3]; 0.5 mg/kg i.v., outpatient laparoscopic cholecystectomy): more effective in preventing PONV after sevoflurane anesthesia than desflurane anesthesia
plasma concentration necessary to obtain a 50% reduction in postoperative nausea ([3]; 10 mg i.v. bolus followed by infusion of 10 μg/kg/min): 343 ng/L
overall occurrence of PONV versus 10% Intralipid ([3]; 20-hour postoperative 0.1 ml/kg/hour infusion): less
prevention of PONV versus placebo [3]: more effective, with no haemodynamic changes, than placebo
effect on PONV ([3]; i.v. bolus 0.1 mg/kg followed by constant infusion of 1 mg/kg/hour): no effect on PONV
PONV prophylaxis versus thiopentone 1.0 mg/kg ([3]; i.v. subhypnotic 0.5 mg/kg, first 6 hours after middle ear surgery): significantly better PONV prophylaxis against retching and vomiting
prevention of PONV versus ondansetron ([3]; intraoperative intravenous, first 6 hours postoperatively): equally as effective as intravenous ondansetron 4 mg

CN1[C@@H]2C[C@@H](OC(=O)[C@H](CO)c3ccccc3)C[C@H]1[C@@H]1O[C@@H]12 [scopolamine, Scopolamine]
Adverse Effect [1]: Sedation, dry mouth,

CN1[C@@H]2CC[C@H]1C[C@@H](OC(=O)c1c[nH]c3ccccc13)C2 [tropisetron, Tropisetron]
prevention of PONV ([3]; 5 mg i.v. before start of anesthesia, breast and gynaecological surgery): effective for prevention of PONV
PONV prevention versus metoclopramide 10 mg or placebo ([3]; i.v. ondansetron 4 mg): significantly greater anti-emetic effectiveness than metoclopramide or placebo
prevention of PONV symptoms [3]: effectively prevented vomiting, but not nausea and retching
optimal effective dose for treatment of PONV ([5]; intravenous, abdominal and non-abdominal surgeries (Alon)): 2 mg
patients with response (single agent, first study): about 80%
Adverse Effect [1]: Headache, dizziness
